Assay results reported in patent US8822523B2, “Carboxamide microbiocides” (Syngenta Participations AG, priority 2011, dated 2014).

Experiments:
[1] = test system: Puccinia recondita; assay: Puccinia recondita / wheat / leaf disc preventative (brown rust); assay type: in vivo; settings: foliar, 200 ppm active ingredient, wheat leaf segments, preventive, assessed 8 dpi, read-out: fungal growth inhibition
Description: Puccinia recondita/Wheat/Leaf Disc Preventative (Brown Rust)
Wheat leaf segments were placed on agar in multiwell plates (24-well format) and sprayed with test solutions (200 ppm active ingredient). After drying, the leaf disks were inoculated with a spore suspension of the fungus. After appropriate incubation the activity of a compound was assessed 8 dpi (days after inoculation) as preventive fungicidal activity. The activity of a compound was expressed as fungal growth inhibition (0=no growth inhibition, ratings of 80% to 99% mean good to very good inhibition, 100%=complete inhibition).

[2] = test system: Puccinia recondita; assay: Puccinia recondita / wheat / leaf disc curative (brown rust); assay type: in vivo; settings: foliar, 24 h, 200 ppm active ingredient applied one day after inoculation, wheat leaf segments, assessed 8 dpi, read-out: fungal growth inhibition
Description: Puccinia recondita/Wheat/Leaf Disc Curative (Brown Rust)
Wheat leaf segments were placed on agar in multiwell plates (24-well format). The leaf disks were then inoculated with a spore suspension of the fungus One day after inoculation the test solution was applied (200 ppm active ingredient). After appropriate incubation the activity of a compound was assessed 8 dpi (days after inoculation) as curative fungicidal activity. The activity of a compound was expressed as fungal growth inhibition (0=no growth inhibition, ratings of 80% to 99% mean good to very good inhibition, 100%=complete inhibition).

[3] = test system: Mycosphaerella arachidis (Cercospora arachidicola); assay: Mycosphaerella arachidis (Cercospora arachidicola) / liquid culture (early leaf spot); assay type: cell-based; settings: 200 ppm active ingredient, PDB potato dextrose broth, 24° C., photometrically after 6-7 days, read-out: fungal growth inhibition
Description: Mycosphaerella arachidis (Cercospora arachidicola)/Liquid Culture (Early Leaf Spot)
(§1) Conidia of the fungus from cryogenic storage were directly mixed into nutrient broth (PDB potato dextrose broth). After placing a (DMSO) solution of the test compounds (200 ppm active ingredient) into a microtiter plate (96-well format) the nutrient broth containing the fungal spores was added. The test plates were incubated at 24° C. and the inhibition of growth was measured photometrically after 6-7 days. The activity of a compound was expressed as fungal growth inhibition (0=no growth inhibition, ratings of 80% to 99% mean good to very good inhibition, 100%=complete inhibition).

[4] = test system: Mycosphaerella graminicola (Septoria tritici); assay: Mycosphaerella graminicola (Septoria tritici) / liquid culture (Septoria blotch); assay type: cell-based; settings: Zymoseptoria tritici, 96 h; 200 ppm active ingredient, PDB potato dextrose broth, 24° C., photometrically after 4 days; read-out: fungal growth inhibition
Description: Mycosphaerella graminicola (Septoria tritici)/Liquid Culture (Septoria blotch)
as §1, with “4” for “6-7”

Measured: inhibition at 200 ppm

Cn1cc(C(=O)NOCC2CCCCc3cc(C#CC(C)(C)C)sc32)c(C(F)F)n1 (stereo not shown) [Compound 2.47, 3-Difluoromethyl-1-methyl-1H-pyrazole-4-carboxylic acid [2-(3,3-dimethylbut-1-ynyl)-5,6,7,8-tetrahydro-4H-cyclohepta[b]thiophen-8-yl]methoxy amide]
≥ 80%: all assays above
